Read-outs that look alike come from different tables or passages of the source.
Legend:
[1] = target: T1, human AR (androgen receptor) (Homo sapiens, UniProt P10275); assay: Steroid hormone nuclear receptor binding assay, AR binding
T1 construct: expressed in transfected cells; host or cells: 293 cells (293-AR lysate)
T1 sequence (P10275 1-920): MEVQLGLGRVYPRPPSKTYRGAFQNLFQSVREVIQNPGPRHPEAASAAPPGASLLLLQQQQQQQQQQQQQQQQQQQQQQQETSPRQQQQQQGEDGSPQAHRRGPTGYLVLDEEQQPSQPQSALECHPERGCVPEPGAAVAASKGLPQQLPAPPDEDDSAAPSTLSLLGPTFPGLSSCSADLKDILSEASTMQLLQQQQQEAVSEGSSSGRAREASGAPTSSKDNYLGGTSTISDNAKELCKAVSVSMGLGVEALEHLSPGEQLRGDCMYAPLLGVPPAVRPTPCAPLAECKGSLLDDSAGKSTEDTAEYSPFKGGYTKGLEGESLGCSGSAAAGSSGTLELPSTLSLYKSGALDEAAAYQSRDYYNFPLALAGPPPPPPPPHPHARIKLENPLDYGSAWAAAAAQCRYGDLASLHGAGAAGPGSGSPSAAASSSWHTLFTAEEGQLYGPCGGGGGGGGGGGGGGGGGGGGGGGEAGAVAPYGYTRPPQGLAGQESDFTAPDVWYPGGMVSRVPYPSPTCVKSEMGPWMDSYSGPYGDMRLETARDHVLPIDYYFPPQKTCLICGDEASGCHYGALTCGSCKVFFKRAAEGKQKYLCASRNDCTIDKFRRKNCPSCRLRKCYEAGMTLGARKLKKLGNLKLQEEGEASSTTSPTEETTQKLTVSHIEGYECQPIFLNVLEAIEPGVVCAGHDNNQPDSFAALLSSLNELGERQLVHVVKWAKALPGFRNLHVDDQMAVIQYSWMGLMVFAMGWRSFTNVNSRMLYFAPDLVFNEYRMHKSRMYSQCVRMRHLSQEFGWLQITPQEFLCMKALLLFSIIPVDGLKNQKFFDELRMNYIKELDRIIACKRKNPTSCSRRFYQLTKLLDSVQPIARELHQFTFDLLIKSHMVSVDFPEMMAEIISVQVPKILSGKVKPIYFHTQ
Description: Cell lysates from 293 cells overexpressing human GR (glucocorticoid receptor), AR (androgen receptor), MR (mineralocorticoid receptor) or PR (progesterone receptor) are used for competition binding assays to determine Ki values for test compounds. […] Competing compounds are added at various concentrations ranging from about 0.01 nM to 10 μM. Non-specific binding is determined in the presence of 500 nM dexamethasone for GR binding, 500 nM aldosterone for MR binding, or 500 nM methyltrienolone for AR and PR binding. The binding reaction (140 μl) is incubated for overnight at 4° C., then 70 μl of cold charcoal-dextran buffer (containing per 50 ml of assay buffer, 0.75 g of charcoal and 0.25 g of dextran) is added to each reaction. Plates are mixed 8 minutes on an orbital shaker at 4° C. Plates are then centrifuged at 3,000 rpm at 4° C. for 10 minutes. An aliquot of 120 μl of the mix is transferred to another 96-well plate and 175 μl of Wallac Optiphase “Hisafe 3” scintillation fluid is added to each well. Plates are sealed and shaken vigorously on an orbital shaker. After an incubation of 2 hrs, plates are read in a Wallac Microbeta counter. […] The Kd for ^3H-dexamethasone for GR binding, ^3H-methyltrienolone for AR binding, ^3H-aldosterone for MR binding, or ^3H-methyltrienolone for PR binding, is determined by saturation binding. The IC50 values for test compounds are converted to Ki using Cheng-Prusoff equation and the Kd determined by saturation binding assay. […]

[2] = target: T2, human androgen receptor (AR) (Homo sapiens, UniProt P10275); assay: C2C12 AR/ARE reporter assay; type: cell-based
T2 construct: expressed in transfected cells; host or cells: mouse myoblast C2C12 cells, transiently co-transfected
T2 sequence (P10275 1-920): T1 sequence (P10275 1-920)
Description: As an indicator of agonist activity in muscle tissue, the C2C12 AR/ARE reporter assay is performed. Briefly, mouse myoblast C2C12 cells are co-transfected using FuGENE™. […] Cells are transfected in T150 cm^2 flasks in DMEM media with 4% or 10% Fetal Bovine Serum […]. After a 5 hour incubation, transfected cells are trypsinized, plated in 96 well dishes in DMEM media containing 10% charcoal-stripped FBS, incubated for 2 h and then exposed to various concentrations of test compounds ranging from about 0.01 nM to 10 μM. After 48 h of incubations with compounds, cells are lysed and luciferase activity is determined using standard techniques. Data is fit to a 4 parameter-fit logistics to determine EC50 values. The % efficacy is determined versus maximum stimulation obtained with 10 nM methyltrienolone. […]

[3] = C2C12, read-out: C2C12 % Efficacy
[4] = average of n trials, read-out: AR binding Ki
[5] = C2C12 AR/ARE reporter assay, average of n trials, read-out: C2C12 % Efficacy
[6] = C2C12 AR/ARE reporter assay, average of n trials, read-out: C2C12 EC50

Row | SMILES | Ki [1] [µM] | EC50 [2] [µM] | Emax [2, 3] [%] | Ki [1, 4] [µM] | Emax [2, 5] [%] | EC50 [2, 6] [µM] | C2C12 % Efficacy ([2]; C2C12 AR/ARE reporter assay, average of n trials) [%]
1 | CC(C)C(=O)NC1CCc2c(c3cc(C#N)ccc3n2Cc2ccccc2O)C1 (stereo not drawn) [Example 107, N-[6-Cyano-9-(2-hydroxy-benzyl)-2,3,4,9-tetrahydro-1H-carbazol-3-yl]-isobutyrarmide] | 0.0031 | 0.0005 | 86.2 |  |  |  | 
2 | CN(C)C(=O)NC1CCc2c(c3cc(OC(F)(F)F)ccc3n2Cc2cccc(F)c2)C1 (stereo not drawn) [Example 169] |  |  |  | 0.0083 | 76.8 | 0.0065 | 
3 | CC(C)C(=O)NC1CCc2c(c3cc(Cl)ccc3n2Cc2ccc(O)cc2)C1 (stereo not drawn) [Example 103, N-[6-Chloro-9-(4-hydioxy-benzyl)-2,3,4,9-tetrahydro-1H-carbazol-3-yl]-isobutyramide] |  |  |  | 0.0514 | 32.8 | 0.293 | 
4 | CO/N=C/c1ccc2c(c1)c1c(n2Cc2cccc(F)c2)CC[C@@H](NC(=O)C(C)C)C1 [Example 201, (R)-N-[9-(3-Fluorobenzyl)-6-(methoxyimino-methyl)-2,3,4,9-tetrahydro-1H-carbazol-3-yl]-isobutyramide] |  |  |  | 0.0029 | 79.9 | 0.005 | 
5 | O=C(NC1CCc2c(c3cc(OC(F)(F)F)ccc3n2Cc2cccc(F)n2)C1)C1CC1 (stereo not drawn) [Example 163] |  |  |  | 0.0127 | 75.2 | 0.0373 | 
6 | CC(C)C(=O)NC1CCc2c(c3cc(C#N)ccc3n2Cc2cc(F)cc(F)c2)C1 (stereo not drawn) [Example 89] | 0.0033 | 0.0019 | 78.5 |  |  |  | 
7 | CCCOc1ccc2c(c1)c1c(n2Cc2cccc(F)c2)CCC(NC(=O)C(C)C)C1 (stereo not drawn) [Example 95, N-[9-(3-Fluoro-benzyl)-6-propoxy-2,3,4,9-tetrahydro-1H-carbazol-3-yl]-isobutyramide] | 0.0124 | 0.0183 | 79.6 |  |  |  | 
8 | CC(C)C(=O)NC1CCc2c(c3cc(-c4cncnc4)ccc3n2Cc2cccc(F)c2)C1 (stereo not drawn) [Example 137] | 0.0162 | 0.0175 | 79.4 |  |  |  | 
9 | CC(C)C(=O)N[C@@H]1CCc2c(c3cc(C=O)ccc3n2Cc2cccc(F)c2)C1 [Example 200, (R)-N-[9-(3-Fluorobenzyl)-6-formyl-2,3,4,9-tetrahydro-1H-carbazol-3-yl]-isobutyramide] | 0.0028 | 0.0081 | 112 |  |  |  | 
10 | COc1ccc2c(c1)c1c(n2Cc2ccccc2F)CCC(NC(=O)C(C)C)C1 (stereo not drawn) [Example 78] | 0.187 | 0.238 | 71.5 |  |  |  | 
11 | COc1ccc2c(c1)c1c(n2Cc2ccccc2Cl)CCC(NC(=O)C(C)C)C1 (stereo not drawn) [Example 69, N-[9-(2-Chloro-benzyl)-6-methoxy-2,3,4,9-tetrahydro-1H-carbazol-3-yl]-isobutyramide] | 0.0341 | 0.213 | 63.3 |  |  |  | 
12 | COc1ccc2c(c1)c1c(n2Cc2cccc(F)c2)CCC(NC(=O)C(C)C)C1 (stereo not drawn) [Example 79, N-[9-(3-fluoro-benzyl)-methoxy-2,3,4,9-tetrahydro-1H-carbazol-3-yl]-isobutyramide] |  |  |  | 0.0282 |  | 0.0164 | 85.7
13 | Cc1ccc(-c2ccc3c(c2)c2c(n3Cc3cccc(F)c3)CCC(NC(=O)C(C)C)C2)nn1 (stereo not drawn) [Example 139, N-[9-(3-Fluoro-benzyl)-6-(6-methyl-pyridazin-3-yl)-2,3,4,9-tetrahydro-1H-carbazol-3-yl]-isobutyramide] |  |  |  | 0.0349 | 96.9 | 0.0194 | 
14 | CC(C)C(=O)NC1CCc2c(c3cc(C#N)c(F)cc3n2Cc2cccc(F)c2)C1 (stereo not drawn) [Example 115, N-[6-Cyano-7-fluoro-9-(3-fluoro-benzyl)-2,3,4,9-tetrahydro-1H-carbazol-3-yl]-isobutyramide] | 0.0032 | 0.0043 | 74.7 |  |  |  | 
15 | COc1cccc(Cn2c3c(c4cc(OC)ccc42)CC(NC(=O)C(C)C)CC3)c1 (stereo not drawn) [Example 73] | 0.0521 | 0.227 | 54.7 |  |  |  | 
16 | COc1ccc2c3c(n(Cc4ccccc4)c2c1)CCC(NC(=O)C(C)C)C3 (stereo not drawn) [Example 77] | 0.103 | 1.2 | 74.9 |  |  |  | 

From patent US7935722B2 (Eli Lilly and Company, priority 2005, dated 2011)
